Experimental data: PubChem BioAssay AID1919006 (Molecular Pharmacology Branch, DTP, NCI, 2023)

System: 885512-296-R-J2-PDC complex spheroid growth, % test/control
Assay: Anticancer human tumor 885512-296-R-J2-PDC patient-derived breast carcinoma cell line growth inhibition [AhR]
Conditions: for IC50: curve of first compound; for viability, T/C: stronger effect = lower value
Outline: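 Complex tumor spheroids co-cultured with HUVEC and human MSC stroma; AhR antagonists tested in combination with standard-of-care and investigational agents. Top concentration at or near clinical Cmax (else 10 microM), half-log dilutions; growth expressed as percent test/control.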

[1] = second compound 0.1 µM, first compound 0.0316 µM
[2] = second compound 0.1 µM, first compound 0.1 µM
[3] = second compound 0.1 µM, first compound 0.316 µM
[4] = second compound 0.1 µM, first compound 1 µM
[5] = second compound 0.1 µM, first compound 3.16 µM
[6] = second compound 0.1 µM, first compound 10 µM
[7] = second compound 0.316 µM, first compound 0.0316 µM
[8] = second compound 0.316 µM, first compound 0.1 µM
[9] = second compound 0.316 µM, first compound 0.316 µM
[10] = second compound 0.316 µM, first compound 1 µM
[11] = second compound 0.316 µM, first compound 3.16 µM
[12] = second compound 0.316 µM, first compound 10 µM
[13] = second compound 1 µM, first compound 0.0316 µM
[14] = second compound 1 µM, first compound 0.1 µM
[15] = second compound 1 µM, first compound 0.316 µM
[16] = second compound 1 µM, first compound 1 µM
[17] = second compound 1 µM, first compound 3.16 µM
[18] = second compound 1 µM, first compound 10 µM
[19] = second compound 3.16 µM, first compound 0.0316 µM
[20] = second compound 3.16 µM, first compound 0.1 µM
[21] = second compound 3.16 µM, first compound 0.316 µM
[22] = second compound 3.16 µM, first compound 1 µM
[23] = second compound 3.16 µM, first compound 3.16 µM
[24] = second compound 3.16 µM, first compound 10 µM
[25] = second compound 10 µM, first compound 0.0316 µM
[26] = second compound 10 µM, first compound 0.1 µM
[27] = second compound 10 µM, first compound 0.316 µM
[28] = second compound 10 µM, first compound 1 µM
[29] = second compound 10 µM, first compound 3.16 µM
[30] = second compound 10 µM, first compound 10 µM
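Further: spheroids exposed to compounds for seven days.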

CC(C)CC(NC(=O)C(Cc1ccccc1)NC(=O)c1cnccn1)B(O)O (stereo not given) + Cc1ccccc1N=Nc1ccc(NC(=O)c2ccnn2C)c(C)c1
IC50 (second compound 0.1 µM): 6.58 nM | IC50 (second compound 0.316 µM): 7.08 nM | IC50 (second compound 1 µM): 6.29 nM | IC50 (second compound 3.16 µM): 6.14 nM | IC50 (second compound 10 µM): 3.21 nM | viability, T/C (second compound 0.1 µM, first compound 0.000949 µM): 96.7% | viability, T/C (second compound 0.1 µM, first compound 0.003 µM): 105% | viability, T/C (second compound 0.1 µM, first compound 0.00949 µM): 26.3% | viability, T/C (second compound 0.1 µM, first compound 0.03 µM): 1.3% | viability, T/C (second compound 0.1 µM, first compound 0.0949 µM): 0.26% | viability, T/C (second compound 0.1 µM, first compound 0.3 µM): 0.15% | viability, T/C (second compound 0.316 µM, first compound 0.000949 µM): 115% | viability, T/C (second compound 0.316 µM, first compound 0.003 µM): 122% | viability, T/C (second compound 0.316 µM, first compound 0.00949 µM): 26.6% | viability, T/C (second compound 0.316 µM, first compound 0.03 µM): 1.13% | viability, T/C (second compound 0.316 µM, first compound 0.0949 µM): 0.18% | viability, T/C (second compound 0.316 µM, first compound 0.3 µM): 0.13% | viability, T/C (second compound 1 µM, first compound 0.000949 µM): 111% | viability, T/C (second compound 1 µM, first compound 0.003 µM): 101% | viability, T/C (second compound 1 µM, first compound 0.00949 µM): 21.8% | viability, T/C (second compound 1 µM, first compound 0.03 µM): 1.27% | viability, T/C (second compound 1 µM, first compound 0.0949 µM): 0.5% | viability, T/C (second compound 1 µM, first compound 0.3 µM): 0.13% | viability, T/C (second compound 3.16 µM, first compound 0.000949 µM): 82% | viability, T/C (second compound 3.16 µM, first compound 0.003 µM): 94.2% | viability, T/C (second compound 3.16 µM, first compound 0.00949 µM): 26.8% | viability, T/C (second compound 3.16 µM, first compound 0.03 µM): 1.47% | viability, T/C (second compound 3.16 µM, first compound 0.0949 µM): 0.16% | viability, T/C (second compound 3.16 µM, first compound 0.3 µM): 0.14% | viability, T/C (second compound 10 µM, first compound 0.000949 µM): 58% | viability, T/C (second compound 10 µM, first compound 0.003 µM): 50.3% | viability, T/C (second compound 10 µM, first compound 0.00949 µM): 25.8% | viability, T/C (second compound 10 µM, first compound 0.03 µM): 1.46% | viability, T/C (second compound 10 µM, first compound 0.0949 µM): 0.3% | viability, T/C (second compound 10 µM, first compound 0.3 µM): 0.18%

COc1cc(Nc2ncc3c(n2)-c2ccc(Cl)cc2C(c2c(F)cccc2OC)=NC3)ccc1C(=O)O + Cc1ccccc1N=Nc1ccc(NC(=O)c2ccnn2C)c(C)c1
IC50 (second compound 0.1 µM): 4100 nM | IC50 (second compound 0.316 µM): > 10000 nM | IC50 (second compound 1 µM): 5480 nM | IC50 (second compound 3.16 µM): 1980 nM | IC50 (second compound 10 µM): < 31.6 nM | viability, T/C [1]: 61.3% | viability, T/C [2]: 51.4% | viability, T/C [3]: 59.2% | viability, T/C [4]: 59.2% | viability, T/C [5]: 52.2% | viability, T/C [6]: 38.9% | viability, T/C [7]: 62.9% | viability, T/C [8]: 48.8% | viability, T/C [9]: 57.8% | viability, T/C [10]: 50.6% | viability, T/C [11]: 53.5% | viability, T/C [12]: 47.6% | viability, T/C [13]: 56.8% | viability, T/C [14]: 54.8% | viability, T/C [15]: 65.9% | viability, T/C [16]: 58.1% | viability, T/C [17]: 46.2% | viability, T/C [18]: 49% | viability, T/C [19]: 51.4% | viability, T/C [20]: 46.6% | viability, T/C [21]: 55% | viability, T/C [22]: 54.4% | viability, T/C [23]: 47.1% | viability, T/C [24]: 43.3% | viability, T/C [25]: 45.6% | viability, T/C [26]: 40.9% | viability, T/C [27]: 40.6% | viability, T/C [28]: 39.6% | viability, T/C [29]: 36.5% | viability, T/C [30]: 37.7%

NS(=O)(=O)OCC1CC(n2ccc3c(NC4CCc5ccccc54)ncnc32)CC1O (stereo not given) + Cc1ccccc1N=Nc1ccc(NC(=O)c2ccnn2C)c(C)c1
IC50 (second compound 0.1 µM): 94.9 nM | IC50 (second compound 0.316 µM): 90.1 nM | IC50 (second compound 1 µM): 88.2 nM | IC50 (second compound 3.16 µM): 80.5 nM | IC50 (second compound 10 µM): 57.6 nM | viability, T/C [1]: 93.2% | viability, T/C [2]: 47.9% | viability, T/C [3]: 16.2% | viability, T/C [4]: 6.95% | viability, T/C [5]: 4.75% | viability, T/C [6]: 5.39% | viability, T/C [7]: 94.9% | viability, T/C [8]: 45.5% | viability, T/C [9]: 14.1% | viability, T/C [10]: 6.56% | viability, T/C [11]: 4.96% | viability, T/C [12]: 5.27% | viability, T/C [13]: 96.5% | viability, T/C [14]: 44.2% | viability, T/C [15]: 16.7% | viability, T/C [16]: 7.31% | viability, T/C [17]: 5.64% | viability, T/C [18]: 6.16% | viability, T/C [19]: 84.5% | viability, T/C [20]: 42% | viability, T/C [21]: 14.1% | viability, T/C [22]: 6.49% | viability, T/C [23]: 4.75% | viability, T/C [24]: 5.47% | viability, T/C [25]: 67% | viability, T/C [26]: 34.3% | viability, T/C [27]: 13.7% | viability, T/C [28]: 4.96% | viability, T/C [29]: 3.85% | viability, T/C [30]: 4.91%

O=C(C=Cc1cccc(S(=O)(=O)Nc2ccccc2)c1)NO + Cc1ccccc1N=Nc1ccc(NC(=O)c2ccnn2C)c(C)c1
IC50 (second compound 0.1 µM): 871 nM | IC50 (second compound 0.316 µM): 1160 nM | IC50 (second compound 1 µM): 1090 nM | IC50 (second compound 3.16 µM): 773 nM | IC50 (second compound 10 µM): 33.8 nM | viability, T/C [1]: 84.5% | viability, T/C [2]: 82.9% | viability, T/C [3]: 67.6% | viability, T/C [4]: 45% | viability, T/C [5]: 27.8% | viability, T/C [6]: 7.04% | viability, T/C [7]: 86.4% | viability, T/C [8]: 85.8% | viability, T/C [9]: 80.8% | viability, T/C [10]: 47.8% | viability, T/C [11]: 30.6% | viability, T/C [12]: 7.44% | viability, T/C [13]: 88.2% | viability, T/C [14]: 85.5% | viability, T/C [15]: 68.9% | viability, T/C [16]: 51.4% | viability, T/C [17]: 29.8% | viability, T/C [18]: 7.53% | viability, T/C [19]: 73.8% | viability, T/C [20]: 73% | viability, T/C [21]: 67.5% | viability, T/C [22]: 40.6% | viability, T/C [23]: 28.2% | viability, T/C [24]: 6.85% | viability, T/C [25]: 51% | viability, T/C [26]: 46.8% | viability, T/C [27]: 41.9% | viability, T/C [28]: 32.5% | viability, T/C [29]: 27.6% | viability, T/C [30]: 7.31%
